Experimental data from PubChem BioAssay (NCI).
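Grown in 96-well plates, cells were treated for 48 hours with each compound at five concentrations. Insufficient inhibition: endpoint recorded as highest concentration tested. Here, GI50 denotes the concentration required for 50% inhibition of growth. Definition used: TGI = concentration required for complete inhibition of growth.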

Key:
Experiment in all cases: NCI tumour cell line growth inhibition, 48 h
HCC-2998 colon = test system: HCC-2998 colon
K-562 leukemia = test system: K-562 leukemia
LOX IMVI melanoma = test system: LOX IMVI melanoma
MDA-MB-435 = test system: MDA-MB-435
PC-3 prostate = test system: PC-3 prostate
RXF 393 renal = test system: RXF 393 renal
SF-295 CNS = test system: SF-295 CNS
SK-MEL-28 melanoma = test system: SK-MEL-28 melanoma
U251 CNS = test system: U251 CNS
SR leukemia = test system: SR leukemia

Compound	TGI (HCC-2998 colon)	TGI (K-562 leukemia)	TGI (LOX IMVI melanoma)	TGI (MDA-MB-435)	TGI (PC-3 prostate)	TGI (RXF 393 renal)	TGI (SF-295 CNS)	TGI (SK-MEL-28 melanoma)	TGI (U251 CNS)	GI50 (HCC-2998 colon)	GI50 (LOX IMVI melanoma)	GI50 (RXF 393 renal)	GI50 (SF-295 CNS)	GI50 (SK-MEL-28 melanoma)	GI50 (SR leukemia)	TGI (SR leukemia)	GI50 (U251 CNS)	GI50 (K-562 leukemia)	GI50 (MDA-MB-435)	GI50 (PC-3 prostate)
O=C1c2ccccc2C(=O)N1c1ccc(Cc2ccc(N3C(=O)c4ccccc4C3=O)cc2)cc1	> 100 µM	> 100 µM	> 100 µM	> 100 µM	> 100 µM	> 100 µM	> 100 µM	> 100 µM	> 100 µM											
N.N.N.N.N#N.N#N.[Cl-].[Os+6]	> 100 µM		> 100 µM			> 100 µM	> 100 µM	> 100 µM	> 100 µM	> 100 µM	> 100 µM	> 100 µM	> 100 µM	> 100 µM	> 100 µM	> 100 µM	> 100 µM			
COc1cc(C[C@H]2COC(=O)[C@]2(O)Cc2ccc(OCc3ccccc3)c(OC)c2)ccc1OCc1ccccc1	> 100 µM	> 100 µM	> 100 µM	> 100 µM	> 100 µM	> 100 µM	> 100 µM	> 100 µM	> 100 µM	26.5 µM	35.9 µM	40.3 µM	18.9 µM	> 100 µM			23.9 µM	62.3 µM	20.9 µM	74.7 µM
COc1ccc([N+](=O)[O-])c2c(NCCCN(C)C)c(C)c(C)nc12	> 100 µM	> 100 µM	> 100 µM	> 100 µM	> 100 µM		> 100 µM	> 100 µM	> 100 µM							56.6 µM				
O=C(n1c2ccccc2c2n[nH]c(=S)nc21)C(F)(F)F	> 100 µM	> 100 µM	> 100 µM			> 100 µM	> 100 µM	> 100 µM	> 100 µM											
CC(C)(C)c1cc(C2c3cc4c(cc3OC(O)(CO)C2C(=O)O)OCO4)cc(C(C)(C)C)c1O (stereo not given) (tested in a mixture with another compound)		29.6 µM	29.1 µM			29.4 µM	30.3 µM	28.7 µM	29.1 µM											
O=C(c1ccc(Cl)cc1Cl)N1CCN(C(=O)c2ccc(Cl)cc2Cl)C1=S	44.4 µM	> 100 µM	30.8 µM	33.7 µM	68.3 µM	43 µM	61.7 µM	39.4 µM	35.3 µM	22 µM	17.1 µM	18.5 µM	22.9 µM	18.4 µM			17.8 µM	31.4 µM	16.4 µM	22.7 µM
Cc1nc2ccccc2c(=O)n1/N=C(\N=Nc1ccc(Cl)cc1)c1cccc(-c2ccco2)c1		> 100 µM	> 100 µM			76.8 µM	94.6 µM	58.7 µM	> 100 µM											
O=C(CC1(O)C(=O)Nc2ccccc21)c1ccc(Cl)c(Cl)c1 (stereo not given)	> 100 µM	> 100 µM	> 100 µM			> 100 µM	> 100 µM	> 100 µM	> 100 µM							> 100 µM				
COc1ccc(/C=C\c2cc(OC)c(OC)c(OC)c2)cc1NC(=O)/C=C/c1ccc(OC)c(OC)c1	> 100 µM		> 100 µM	1.71 µM	> 100 µM			> 100 µM	> 100 µM	2.72 µM	7.41 µM			3.39 µM	0.412 µM	> 100 µM	3.53 µM		0.348 µM	3.9 µM
Cc1cc(NS(=O)(=O)c2ccc(NC(=O)c3ccc(Cl)c4c(Nc5ccc(S(=O)(=O)Nc6cc(C)on6)cc5)c5ccccc5nc34)cc2)no1		64.3 µM	41.6 µM				57.4 µM		32.8 µM											
CC1(Cl)C(=O)NC(=O)N([C@H]2C[C@H](O)[C@@H](CO)O2)C1N=[N+]=[N-] (stereo not given in full)	> 100 µM	> 100 µM	> 100 µM			> 100 µM	> 100 µM	> 100 µM	> 100 µM							> 100 µM				
Cc1nc(-n2nc(-c3ccccc3)cc2-c2ccccc2)sc1C(=O)CC(=O)C(=O)Nc1ccc(Cl)c(Cl)c1	> 100 µM	> 100 µM	> 100 µM			> 100 µM	> 100 µM		> 100 µM							> 100 µM				
COc1ccc2nc3cc(Cl)ccc3c(Sc3ccc(N)cc3)c2c1	25.1 µM	13.8 µM	20.9 µM			24.7 µM	38.9 µM	29.6 µM	22.6 µM							11.4 µM				
CCN(Cc1ccc(Cl)c(Cl)c1)c1ccc2nc(N)nc(N)c2c1C	1.24 µM			1.49 µM	3.16 µM			1.83 µM		0.039 µM			< 0.01 µM	0.157 µM					< 0.01 µM	0.0284 µM
COc1ccc(C2=Nn3c(nnc3-c3ccc(F)c(Cl)c3)SC2)cc1	> 100 µM	> 100 µM	> 100 µM	> 100 µM	> 100 µM	> 100 µM	> 100 µM	> 100 µM	> 100 µM	> 100 µM	> 100 µM	> 100 µM	> 100 µM	> 100 µM			> 100 µM	> 100 µM	> 100 µM	> 100 µM
Cn1c(=O)nc2n(-c3ccc(Br)cc3)c3ccccc3nc-2c1=O	10.8 µM	24 µM				29 µM	17 µM		19.9 µM											
O=C1/C(=C/c2ccc(F)cc2)COc2ccc(O)c(O)c21	3.57 µM	> 100 µM	2.39 µM	8.78 µM	> 100 µM	3.64 µM	> 100 µM	5.91 µM	4.19 µM	1.8 µM	1.03 µM	1.85 µM	8.09 µM	2.27 µM			1.46 µM	0.354 µM	2.07 µM	1.16 µM
Cc1c(C)c2cc3c(=O)c(CCl)coc3c(C)c2oc1=O	> 100 µM	> 100 µM	> 100 µM			> 100 µM	> 100 µM	> 100 µM	> 100 µM											
COC(=O)NC1(NC(=O)OC)NC(=O)c2ccccc2N1	> 100 µM	> 100 µM			> 100 µM		> 100 µM	> 100 µM								> 100 µM				
O=C1NC(c2ccccc2)(c2ccccc2)C(=O)N1CCCCCCN1C(=O)NC(c2ccccc2)(c2ccccc2)C1=O	> 100 µM	> 100 µM	> 100 µM				81.3 µM	89.2 µM	> 100 µM											
